Results as given in patent publication US20250361230A1, “LATS Inhibitors and Uses Thereof” (The USA, as Represented by the Secretary, Dept. of Heath …, priority 2022, published 2025).

How the values were obtained:
Type in all cases: biochemical
[1] = target: T1, LATS2 (Homo sapiens, UniProt Q9NRM7); assay: RBC HotSpot kinase assay (33P-ATP, P81 filter-binding), LATS2; conditions: Table 28, biochemical kinase assay; read-out: LATS2 IC50
T1 sequence (Q9NRM7 1-1088): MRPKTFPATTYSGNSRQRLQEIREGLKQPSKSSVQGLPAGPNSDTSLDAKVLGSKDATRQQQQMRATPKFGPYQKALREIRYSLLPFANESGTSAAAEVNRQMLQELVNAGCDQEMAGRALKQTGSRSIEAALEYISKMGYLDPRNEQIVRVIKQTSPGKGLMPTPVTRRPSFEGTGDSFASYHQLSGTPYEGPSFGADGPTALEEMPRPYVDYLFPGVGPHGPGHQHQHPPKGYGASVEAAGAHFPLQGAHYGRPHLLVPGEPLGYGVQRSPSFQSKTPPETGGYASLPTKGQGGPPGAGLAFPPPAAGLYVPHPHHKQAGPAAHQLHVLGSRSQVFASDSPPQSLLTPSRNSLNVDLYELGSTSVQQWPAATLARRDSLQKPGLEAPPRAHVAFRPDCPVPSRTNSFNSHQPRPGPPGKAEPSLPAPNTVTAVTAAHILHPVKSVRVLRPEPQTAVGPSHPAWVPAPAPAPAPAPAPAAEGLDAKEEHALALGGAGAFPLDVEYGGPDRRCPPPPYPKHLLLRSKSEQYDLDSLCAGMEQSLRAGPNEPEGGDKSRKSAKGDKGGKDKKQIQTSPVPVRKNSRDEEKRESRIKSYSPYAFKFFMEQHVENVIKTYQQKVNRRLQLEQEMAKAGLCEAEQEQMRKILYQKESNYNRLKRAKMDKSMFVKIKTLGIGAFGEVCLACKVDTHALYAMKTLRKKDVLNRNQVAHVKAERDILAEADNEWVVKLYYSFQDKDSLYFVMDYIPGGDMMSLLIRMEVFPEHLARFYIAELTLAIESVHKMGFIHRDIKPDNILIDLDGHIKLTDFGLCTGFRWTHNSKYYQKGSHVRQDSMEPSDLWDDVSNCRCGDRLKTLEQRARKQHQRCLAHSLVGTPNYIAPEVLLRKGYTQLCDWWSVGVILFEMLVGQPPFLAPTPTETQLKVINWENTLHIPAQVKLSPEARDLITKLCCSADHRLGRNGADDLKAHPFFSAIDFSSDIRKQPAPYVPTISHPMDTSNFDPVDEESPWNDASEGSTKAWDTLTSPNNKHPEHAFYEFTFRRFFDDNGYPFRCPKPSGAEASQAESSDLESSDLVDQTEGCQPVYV
Experimental: (§1) Biochemical kinase inhibitory data was obtained for various exemplary compounds prepared according to the above.
(§2) The reagents used are as follows: Base Reaction buffer; 20 mM Hepes (pH 7.5), 10 mM MgCl2, 1 mM EGTA, 0.01% Brij35, 0.02 mg/ml BSA, 0.1 mM Na3VO4, 2 mM DTT, […]. Required cofactors were added individually to each kinase reaction.
(§3) The reaction procedure was as follows: • 1) Substrates were prepared in freshly prepared Reaction Buffer. • 2) Any required cofactors were delivered to the substrate solution above. • 3) Kinase was delivered into the substrate solution and gently mixed. • 4) Compounds were delivered in 100% DMSO into the kinase reaction mixture by Acoustic technology (Echo550; nanoliter range), followed by incubation for 20 min at room temp. • 5) ^33P-ATP was delivered into the reaction mixture to initiate the reaction. • 6) The mixture was incubated for 2 hours at room temperature. • 7) Kinase activity was detected by P81 filter-binding method.
(§4) Using the above functional assay, the inhibitory activity of the compounds for LATS1/2 versus AKT was characterized. The assays were typically run in a 10-point curve, in singlet, to produce a titration curve from which an IC50 value was obtained.
(§5) The reagents used are as follows: Base Reaction buffer; 20 mM Hepes (pH 7.5), 10 mM MgCl2, 1 mM EGTA, 0.01% Brij35, 0.02 mg/ml BSA, 0.1 mM Na3VO4, 2 mM DTT, 1% DMSO. Required cofactors were added individually to each kinase reaction.
(§6) Biochemical kinase inhibitory data was obtained for various exemplary compounds prepared according to the above in accordance with the protocols described in Examples 4 and 8. All biological activities are IC50, in nM.

[2] = target: AKT (Homo sapiens, UniProt P31749); assay: RBC HotSpot kinase assay (33P-ATP, P81 filter-binding), AKT; conditions: Table 28, biochemical kinase assay; read-out: AKT IC50
AKT, sequence (P31749 whole entry): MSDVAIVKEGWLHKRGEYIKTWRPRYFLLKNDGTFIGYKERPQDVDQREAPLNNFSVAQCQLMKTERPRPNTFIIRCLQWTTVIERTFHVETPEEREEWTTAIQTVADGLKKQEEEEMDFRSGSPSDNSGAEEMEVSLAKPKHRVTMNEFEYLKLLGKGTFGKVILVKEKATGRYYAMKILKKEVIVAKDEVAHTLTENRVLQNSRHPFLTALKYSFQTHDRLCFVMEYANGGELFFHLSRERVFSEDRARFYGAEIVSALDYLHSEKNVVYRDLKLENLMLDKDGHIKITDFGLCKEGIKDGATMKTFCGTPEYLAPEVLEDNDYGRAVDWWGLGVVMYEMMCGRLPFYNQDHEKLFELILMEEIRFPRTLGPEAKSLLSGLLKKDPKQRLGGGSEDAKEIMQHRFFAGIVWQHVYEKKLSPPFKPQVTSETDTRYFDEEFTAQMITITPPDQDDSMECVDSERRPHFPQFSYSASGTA
Experimental: as §1, §2, §3, §4, §5, §6

[3] = target: T2, LATS1 (Homo sapiens, UniProt O95835); assay: RBC HotSpot kinase assay (33P-ATP, P81 filter-binding), LATS1; conditions: Table 28, biochemical kinase assay; read-out: LATS1 IC50
T2 sequence (O95835 1-1130): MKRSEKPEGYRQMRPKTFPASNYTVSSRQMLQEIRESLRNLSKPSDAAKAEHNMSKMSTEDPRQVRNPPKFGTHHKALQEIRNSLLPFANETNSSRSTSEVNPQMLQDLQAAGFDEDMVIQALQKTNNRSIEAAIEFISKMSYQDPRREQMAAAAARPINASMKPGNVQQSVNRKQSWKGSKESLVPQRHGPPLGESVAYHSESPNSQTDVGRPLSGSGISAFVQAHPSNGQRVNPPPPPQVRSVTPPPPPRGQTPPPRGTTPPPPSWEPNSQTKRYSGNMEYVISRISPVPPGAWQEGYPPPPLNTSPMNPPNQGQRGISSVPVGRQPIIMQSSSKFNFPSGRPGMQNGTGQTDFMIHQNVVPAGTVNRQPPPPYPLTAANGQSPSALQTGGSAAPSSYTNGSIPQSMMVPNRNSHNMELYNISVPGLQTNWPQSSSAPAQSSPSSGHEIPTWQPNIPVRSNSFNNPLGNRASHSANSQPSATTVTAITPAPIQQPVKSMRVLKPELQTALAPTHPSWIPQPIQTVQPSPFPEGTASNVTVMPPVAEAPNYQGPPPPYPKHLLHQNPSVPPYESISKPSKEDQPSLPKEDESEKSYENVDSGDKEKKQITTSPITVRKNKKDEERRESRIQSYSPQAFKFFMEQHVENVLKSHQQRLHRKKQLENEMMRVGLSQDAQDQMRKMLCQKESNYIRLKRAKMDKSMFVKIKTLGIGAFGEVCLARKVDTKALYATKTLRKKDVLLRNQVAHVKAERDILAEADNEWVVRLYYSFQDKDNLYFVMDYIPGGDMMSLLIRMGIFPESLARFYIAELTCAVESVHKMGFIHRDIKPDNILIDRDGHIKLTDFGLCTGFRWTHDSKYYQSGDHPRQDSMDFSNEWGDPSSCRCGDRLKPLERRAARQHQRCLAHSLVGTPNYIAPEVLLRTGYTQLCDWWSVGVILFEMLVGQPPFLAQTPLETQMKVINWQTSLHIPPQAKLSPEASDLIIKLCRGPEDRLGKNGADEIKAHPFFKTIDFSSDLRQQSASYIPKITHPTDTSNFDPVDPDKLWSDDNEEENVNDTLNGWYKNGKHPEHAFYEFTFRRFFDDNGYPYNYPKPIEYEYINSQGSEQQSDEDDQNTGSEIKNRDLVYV
Experimental: as §1, §2, §3, §4, §5, §6

Compound	IC50 [1] [nM]	IC50 [2] [nM]	IC50 [3] [nM]
C[C@@H]1CN(C(CF)CF)C[C@H](C)C1(O)c1ccc(-c2ccnc3[nH]cc(F)c23)cc1Cl (stereo partly drawn) [Compound 53, (3S,5R)-4-(2-chloro-4-(3-fluoro-1H-pyrrolo[2,3-b]pyridin-4-yl)phenyl)-1-(1,3-difluoropropan-2-yl)-3,5-dimethylpiperidin-4-ol]	3.6	374	3
Cc1cc(-c2ccnc3[nH]cc(F)c23)ncc1C1(O)[C@H](C)CN(C2CCS(=O)(=O)CC2)C[C@@H]1C (stereo partly drawn) [Compound 56, 4-((3R,5S)-4-(6-(3-fluoro-1H-pyrrolo[2,3-b]pyridin-4-yl)-4-methylpyridin-3-yl)-4-hydroxy-3,5-dimethylpiperidin-1-yl)tetrahydro-2H-thiopyran 1,1-dioxide]	4250	> 10000	2080
C[C@@H]1CN(C(=O)[C@H]2CCCN2)C[C@H](C)[C@@]1(O)c1c(F)cc(-c2ccnc3[nH]cc(F)c23)cc1F [Compound 59, 4-(4-((3S,4R,5R)-1-(L-prolyl)-4-hydroxy-3,5-dimethylpiperidin-4-yl)-3,5-difluorophenyl)-3-fluoro-1H-pyrrolo[2,3-b]pyridine]	10.3	1470	21.6
Cc1cc(-c2ccnc3[nH]cc(F)c23)cc(F)c1[C@@]1(O)[C@H](C)CN(C(=O)C2(N)CC(F)(F)C2)C[C@@H]1C [Compound 62, (1-amino-3,3-difluorocyclobutyl) ((3S,4s,5R)-4-(2-fluoro-4-(3-fluoro-1H-pyrrolo[2,3-b]pyridin-4-yl)-6-methylphenyl)-4-hydroxy-3,5-dimethylpiperidin-1-yl)methanone]	4.3	5880	19.7
Cc1cc(-c2ccnc3[nH]cc(F)c23)cc(F)c1[C@@]1(O)[C@H](C)CN(C(=O)[C@@H]2CCCN2)C[C@@H]1C [Compound 63, 4-(4-((3S,4R,5R)-1-(L-prolyl)-4-hydroxy-3,5-dimethylpiperidin-4-yl)-3-fluoro-5-methylphenyl)-3-fluoro-1H-pyrrolo[2,3-b]pyridine]	3.4	677	8.5
Cc1cc(-c2ccnc3[nH]cc(F)c23)cc(F)c1[C@@]1(O)[C@H](C)CN(C(=O)[C@@H]2CC(F)(F)CN2)C[C@@H]1C [Compound 64, ((S)-4,4-difluoropyrrolidin-2-yl)((3S,4R,5R)-4-(2-fluoro-4-(3-fluoro-1H-pyrrolo[2,3-b]pyridin-4-yl)-6-methylphenyl)-4-hydroxy-3,5-dimethylpiperidin-1-yl)methanone]	3.6	3140	6.7

Results, then the compound that gave them:

IC50 [1] [nM]	IC50 [2] [nM]	IC50 [3] [nM]	Compound
3.2	1180	8.7	Cc1cc(-c2ccnc3[nH]cc(F)c23)cc(F)c1[C@@]1(O)[C@H](C)CN(C(=O)[C@@H]2C[C@H](F)CN2)C[C@@H]1C [Compound 65, ((3S,4R,5R)-4-(2-fluoro-4-(3-fluoro-1H-pyrrolo[2,3-b]pyridin-4-yl)-6-methylphenyl)-4-hydroxy-3,5-dimethylpiperidin-1-yl)((2S,4S)-4-fluoropyrrolidin-2-yl)methanone]
3	673	13	Cc1cc(-c2ccnc3[nH]cc(F)c23)cc(F)c1[C@@]1(O)[C@H](C)CN(C(=O)[C@@H]2C[C@@H](F)CN2)C[C@@H]1C [Compound 66, ((3S,4R,5R)-4-(2-fluoro-4-(3-fluoro-1H-pyrrolo[2,3-b]pyridin-4-yl)-6-methylphenyl)-4-hydroxy-3,5-dimethylpiperidin-1-yl)((2S,4R)-4-fluoropyrrolidin-2-yl)methanone]
2.8	577	8.7	CNCC(=O)N1C[C@@H](C)[C@](O)(c2c(C)cc(-c3ccnc4[nH]cc(F)c34)cc2F)[C@@H](C)C1 [Compound 67, 1-((3S,4s,5R)-4-(2-fluoro-4-(3-fluoro-1H-pyrrolo[2,3-b]pyridin-4-yl)-6-methylphenyl)-4-hydroxy-3,5-dimethylpiperidin-1-yl)-2-(methylamino) ethan-1-one]
6.6	1670	13.8	Cc1cc(-c2ccnc3[nH]cc(F)c23)cc(F)c1[C@@]1(O)[C@H](C)CN(C(=O)[C@@H]2COCCN2)C[C@@H]1C [Compound 68, ((3S,4R,5R)-4-(2-fluoro-4-(3-fluoro-1H-pyrrolo[2,3-b]pyridin-4-yl)-6-methylphenyl)-4-hydroxy-3,5-dimethylpiperidin-1-yl)((S)-morpholin-3-yl)methanone]
3.4	677	8.5	Cc1cc(-c2ccnc3[nH]cc(F)c23)cc(F)c1[C@@]1(O)[C@H](C)CN(C(=O)[C@@H]2C[C@@H](O)CN2)C[C@@H]1C [Compound 69, ((3S,4R,5R)-4-(2-fluoro-4-(3-fluoro-1H-pyrrolo[2,3-b]pyridin-4-yl)-6-methylphenyl)-4-hydroxy-3,5-dimethylpiperidin-1-yl)((2S,4R)-4-hydroxypyrrolidin-2-yl)methanone]
2.5	376	7.8	Cc1cc(-c2ccnc3[nH]cc(F)c23)cc(F)c1[C@@]1(O)[C@H](C)CN(C(=O)[C@@H]2C[C@H](O)CN2)C[C@@H]1C [Compound 70, ((3S,4R,5R)-4-(2-fluoro-4-(3-fluoro-1H-pyrrolo[2,3-b]pyridin-4-yl)-6-methylphenyl)-4-hydroxy-3,5-dimethylpiperidin-1-yl)((2S,4S)-4-hydroxypyrrolidin-2-yl)methanone]
